{
  "source": "paper PMC5152921",
  "about": "“Evolutionary and Functional Diversification of the Vitamin D Receptor-Lithocholic Acid Partnership” (PLoS ONE, 2016)",
  "assay_type_in_all_cases": "cell-based",
  "key": {"Zebrafish VDRα": {"target": "T1, Zebrafish VDRα (Danio rerio, UniProt Q9PTN2)", "T1 construct": "89.7 ng/well of full-length pSG5-VDR was co-transfected; expressed in transfected cells; host or cells: HepG2", "T1 sequence (Q9PTN2 1-453)": "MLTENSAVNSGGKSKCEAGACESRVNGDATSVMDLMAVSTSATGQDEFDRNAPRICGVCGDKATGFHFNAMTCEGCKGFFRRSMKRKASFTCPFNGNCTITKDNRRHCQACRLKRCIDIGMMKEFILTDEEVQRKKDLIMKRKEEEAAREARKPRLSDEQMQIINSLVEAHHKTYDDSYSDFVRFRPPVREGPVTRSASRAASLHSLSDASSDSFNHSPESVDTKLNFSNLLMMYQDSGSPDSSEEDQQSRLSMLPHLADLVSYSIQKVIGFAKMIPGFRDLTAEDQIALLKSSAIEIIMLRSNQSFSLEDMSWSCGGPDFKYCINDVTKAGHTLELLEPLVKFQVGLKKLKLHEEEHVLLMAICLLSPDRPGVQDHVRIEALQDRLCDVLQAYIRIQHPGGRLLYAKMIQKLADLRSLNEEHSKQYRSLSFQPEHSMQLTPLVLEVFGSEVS", "assay": "Transient transactivation assay (XREM-Luc, HepG2)", "conditions": "100 μM LCA", "description": "(§1) HepG2 cells (American Type Culture Collection #HB-8065) were cultured in T75 flasks with vented caps (Corning Life Sciences, Corning, NY) using Minimum Essential Medium (MEM) with phenol red supplemented with 10% fetal bovine serum, 1 mM sodium pyruvate, and 1X MEM non-essential amino acids. Cells were maintained following standard protocols in a 5% CO2 incubator set at 37°C, and split when 80–90% confluent.\nFor the transient transactivation assays, HepG2 cells were seeded in 96-well tissue culture plates at a density of 2.5x10^4 cells per well in complete phenol red-free MEM, and allowed to recover overnight. Transfections were performed the following day using Lipofectamine 2000 (Life Technologies, Grand Island, NY) as described previously. For functional comparisons, 89.7 ng/well of full-length pSG5-VDR was co-transfected with 19.2 ng/well human XREM-Luc reporter and 4.5 ng/well of pRL-CMV as an internal luciferase control. Coregulator studies included the addition of 18.3 ng/well of human coregulators (pCDNA-RXRWT, pCDNA-RXRAF2, pSG5-SRC1, pSG5-GRIP1 or pSG5-ACTR) where indicated. […] Controls include 120 nM 1,25D3 as a positive control, and ethanol as a vehicle control. Twenty-four hours post-exposure cells were tested for luciferase activity using the Dual-Glo Luciferase Assay System (Promega Corporation, Madison, WI) according to the manufacturer’s protocols. Luciferase data were first normalized to the pRL-CMV internal luciferase control. LCA-mediated VDR transactivation (fold activation) was calculated as the ratio of the VDR luciferase response relative to the empty vector control. To calculate the impact of coregulators on VDR transactivation, VDR response in the presence of coregulators was normalized to VDR alone. All experiments were repeated 3 times and conducted as groups of 4 replicate wells. VDR response in the absence of coregulators was analyzed using a 1-way ANOVA followed by Dunnett’s multiple comparisons test. To examine the effects of different coregulators on VDR activation, data were analyzed using a 2-way ANOVA followed by Bonferroni’s multiple comparisons test in GraphPad Prism (GraphPad Inc, San Diego, CA)."}, "Human VDR": {"target": "T2, Human VDR (Homo sapiens, UniProt P11473)", "T2 sequence (P11473 1-427)": "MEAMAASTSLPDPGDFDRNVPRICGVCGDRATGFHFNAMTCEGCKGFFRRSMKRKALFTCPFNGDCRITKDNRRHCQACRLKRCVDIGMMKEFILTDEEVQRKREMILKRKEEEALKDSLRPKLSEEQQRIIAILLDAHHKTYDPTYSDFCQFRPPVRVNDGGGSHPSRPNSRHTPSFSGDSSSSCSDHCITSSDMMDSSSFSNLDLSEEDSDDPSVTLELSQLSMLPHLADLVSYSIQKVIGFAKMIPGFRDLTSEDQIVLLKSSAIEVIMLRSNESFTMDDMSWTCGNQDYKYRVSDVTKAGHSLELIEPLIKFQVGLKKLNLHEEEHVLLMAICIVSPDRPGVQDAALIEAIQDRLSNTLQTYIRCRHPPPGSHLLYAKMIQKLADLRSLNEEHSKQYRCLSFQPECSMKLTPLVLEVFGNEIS", "assay": "Mammalian 2-hybrid assay (VDR-coregulator interaction, HepG2)", "conditions": "100 μM LCA", "excerpt": "Prey constructs included full-length VDRs fused to the herpes simplex VP16 activation domain (pVP16-VDR). Bait constructs consisted of either full-length wild-type human RXR (pM-RXRWT), a truncated human RXR mutant (pM-RXRAF2), or the defined NR box of each member of the SRC/p160 family (pM-SRC1_241-386, pM-GRIP1_479-767, or pM-ACTR392-1005) fused to the yeast Gal4 DNA-binding domain. Reporters included the Gal4 luciferase reporter (5xGal4-TATA-Luc) and pRL-CMV as an internal luciferase control.\nHepG2 cells were seeded into 96-well tissue culture plates as described above and transfected with Lipofectamine 2000 the following day. Each well received 33.6 ng pVP16-VDR, 33.6 ng pM-coregulator (where indicated), 126.6 ng 5XGal4-TATA-Luc, and 3 ng pRL-CMV. […] Positive controls were treated with 1,25D3 and vehicle controls were treated with ethanol. Luciferase activity was measured 24 hours post-exposure using the Dual-Glo Luciferase Assay System described above. Raw luciferase data were normalized to the pRL-CMV luciferase control. VDR-coregulator response was normalized to the pVP16-VDR in the absence of bait constructs. Results were analyzed using a two-way ANOVA followed by Bonferroni’s multiple comparisons test in Prism (GraphPad Inc, San Diego, CA). All experiments were replicated 3 times and conducted as groups of 4 replicate wells."}, "Zebrafish VDRβ": {"target": "T3, Zebrafish VDRβ (Danio rerio, UniProt Q1L673)", "T3 sequence (Q1L673 1-422)": "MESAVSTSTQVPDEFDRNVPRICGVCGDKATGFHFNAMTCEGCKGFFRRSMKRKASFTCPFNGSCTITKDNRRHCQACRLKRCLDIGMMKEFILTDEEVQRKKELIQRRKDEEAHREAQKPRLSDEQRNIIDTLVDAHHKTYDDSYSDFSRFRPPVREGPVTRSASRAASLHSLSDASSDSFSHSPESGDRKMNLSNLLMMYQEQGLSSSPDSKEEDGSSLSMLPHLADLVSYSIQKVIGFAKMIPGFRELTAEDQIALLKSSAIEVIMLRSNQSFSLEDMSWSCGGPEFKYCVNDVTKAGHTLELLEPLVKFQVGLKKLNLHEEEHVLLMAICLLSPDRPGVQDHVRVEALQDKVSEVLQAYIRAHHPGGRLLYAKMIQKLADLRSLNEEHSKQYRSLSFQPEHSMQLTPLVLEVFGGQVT", "assay": "Transient transactivation assay (XREM-Luc, HepG2)", "set-up": "expressed in transfected cells; host or cells: HepG2", "conditions": "100 μM LCA; co-transfected human RXRWT; vs VDR alone", "description": "as §1\nFor the transient transactivation assays, HepG2 cells were seeded in 96-well tissue culture plates at a density of 2.5x10^4 cells per well in complete phenol red-free MEM, and allowed to recover overnight. Transfections were performed the following day using Lipofectamine 2000 (Life Technologies, Grand Island, NY) as described previously. […] LCA-mediated VDR transactivation (fold activation) was calculated as the ratio of the VDR luciferase response relative to the empty vector control. […] VDR response in the absence of coregulators was analyzed using a 1-way ANOVA followed by Dunnett’s multiple comparisons test. To examine the effects of different coregulators on VDR activation, data were analyzed using a 2-way ANOVA followed by Bonferroni’s multiple comparisons test in GraphPad Prism (GraphPad Inc, San Diego, CA)."}},
  "data": [
    {"smiles": "C[C@H](CCC(=O)O)[C@H]1CC[C@H]2[C@@H]3CC[C@@H]4C[C@H](O)CC[C@]4(C)[C@H]3CC[C@]12C", "note": "[LCA, 5β-cholanic acid-3α-ol]", "values": [
      {"measurement": "Effect of exogenous human RXRWT on VDR transactivation", "setting": "Zebrafish VDRα; co-transfected human RXRWT, vs VDR alone", "result": "significantly enhanced transactivation"},
      {"measurement": "Effect of RXRWT+SRC1 or RXRWT+GRIP1 on VDR transactivation", "setting": "Zebrafish VDRα; compared to either coregulator individually", "result": "significantly enhanced VDR transactivation"},
      {"measurement": "VDR-SRC1 interaction", "setting": "Human VDR; absence of cotransfected RXRWT", "result": "successfully recruited SRC1"},
      {"measurement": "VDR-RXRWT interaction (heterodimerization)", "setting": "Human VDR; bait human RXRWT", "result": "Robust and significant VDR-RXRWT interactions"},
      {"measurement": "VDR-SRC1 interaction", "setting": "Human VDR; cotransfection of RXRWT", "result": "strong VDR-SRC1 interactions"},
      {"measurement": "Effect of exogenous human RXRWT on VDR transactivation", "setting": "Zebrafish VDRβ", "result": "significantly enhanced transactivation"}
    ]}
  ]
}
